ChEMBL document CHEMBL1909046, “DrugMatrix in vitro pharmacology data”

What was measured:
[1] = DRUGMATRIX: beta-Lactamase enzyme inhibition (substrate: Nitrocefin); set-up: species or system Bacillus cereus; settings: Not Active = under 50% inhibition at 10 µM
[2] = DRUGMATRIX: GABAA, Muscimol, Central radioligand binding (ligand: [3H] Muscimol); assay type: cell membranes, Rattus norvegicus, Wistar, Brain, Membrane; settings: Not Active = under 50% inhibition at 10 µM
[3] = DRUGMATRIX: Glutamate, Kainate radioligand binding (ligand: [3H] Kainic acid); assay type: cell membranes, Rattus norvegicus, Wistar, Brain, Membrane; settings: Not Active = under 50% inhibition at 10 µM
[4] = DRUGMATRIX: Glutamate, NMDA, Phencyclidine radioligand binding (ligand: [3H] TCP); assay type: cell membranes, Rattus norvegicus, Wistar, Cerebral cortex, Membrane; settings: Not Active = under 50% inhibition at 10 µM
[5] = molecular target: T1, Cysteinyl leukotriene receptor 1 (Homo sapiens, UniProt Q9Y271); assay type: cell membranes, CHO-K1, Membrane; settings: cho-k1; also: in other assays of this panel Not Active means under 50% inhibition at 10 µM
T1 sequence (Q9Y271 whole entry): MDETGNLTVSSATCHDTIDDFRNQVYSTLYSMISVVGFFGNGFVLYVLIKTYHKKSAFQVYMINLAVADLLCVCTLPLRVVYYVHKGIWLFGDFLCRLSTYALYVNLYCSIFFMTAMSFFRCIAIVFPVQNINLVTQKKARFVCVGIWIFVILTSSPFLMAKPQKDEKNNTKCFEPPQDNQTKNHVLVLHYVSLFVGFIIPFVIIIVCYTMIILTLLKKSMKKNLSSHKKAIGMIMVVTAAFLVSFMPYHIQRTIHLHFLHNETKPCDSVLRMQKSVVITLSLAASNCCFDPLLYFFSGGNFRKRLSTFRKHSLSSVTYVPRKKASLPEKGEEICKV

[6] = molecular target: cGMP-specific 3',5'-cyclic phosphodiesterase (Homo sapiens, UniProt O76074); experiment: DRUGMATRIX: Phosphodiesterase PDE5 enzyme inhibition (substrate: [3H]cGMP + cGMP); assay type: tissue-based; settings: platelet; Not Active = under 50% inhibition at 10 µM
[7] = molecular target: Mitogen-activated protein kinase 1 (Homo sapiens, UniProt P28482); experiment: DRUGMATRIX: Protein Serine/Threonine Kinase, ERK2 enzyme inhibition (substrate: Myelin Basic Protein); set-up: species or system Escherichia coli; settings: Not Active = under 50% inhibition at 10 µM
Cytochrome P450 2D6 = Cytochrome P450 2D6 (Homo sapiens, UniProt P10635); settings: bti-tn-5b1-4; also: in other assays of this panel Not Active means under 50% inhibition at 10 µM
Sequence of Cytochrome P450 2D6 (P10635 whole entry): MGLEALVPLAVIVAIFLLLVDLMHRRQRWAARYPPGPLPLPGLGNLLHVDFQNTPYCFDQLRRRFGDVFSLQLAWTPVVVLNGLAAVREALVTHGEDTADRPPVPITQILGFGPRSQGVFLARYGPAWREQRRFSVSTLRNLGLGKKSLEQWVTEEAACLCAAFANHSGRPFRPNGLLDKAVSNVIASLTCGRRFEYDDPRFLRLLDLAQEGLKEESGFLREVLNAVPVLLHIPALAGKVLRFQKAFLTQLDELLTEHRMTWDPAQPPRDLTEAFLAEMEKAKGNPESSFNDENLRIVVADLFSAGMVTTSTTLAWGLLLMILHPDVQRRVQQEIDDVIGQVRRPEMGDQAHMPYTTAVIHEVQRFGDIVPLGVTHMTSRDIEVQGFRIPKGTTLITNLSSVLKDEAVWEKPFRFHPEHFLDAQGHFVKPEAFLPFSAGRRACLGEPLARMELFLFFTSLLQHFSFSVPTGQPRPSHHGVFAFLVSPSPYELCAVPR

Sequence of Mitogen-activated protein kinase 1 (P28482 whole entry): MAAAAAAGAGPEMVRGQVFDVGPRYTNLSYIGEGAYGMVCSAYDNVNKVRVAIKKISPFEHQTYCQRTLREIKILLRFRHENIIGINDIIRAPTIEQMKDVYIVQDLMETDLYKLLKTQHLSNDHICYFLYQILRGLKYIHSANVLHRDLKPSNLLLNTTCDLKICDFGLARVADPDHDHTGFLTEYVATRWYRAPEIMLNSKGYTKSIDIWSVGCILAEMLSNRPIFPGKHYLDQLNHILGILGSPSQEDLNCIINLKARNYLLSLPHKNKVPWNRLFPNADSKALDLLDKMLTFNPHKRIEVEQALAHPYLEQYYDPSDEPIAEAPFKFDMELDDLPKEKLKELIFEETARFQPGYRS

O=C(O)Cc1ccccc1Nc1c(Cl)cccc1Cl [DICLOFENAC]
Not Active: IC50 [1] | Ki [1] | IC50 [2] | Ki [2] | IC50 [3] | Ki [3] | IC50 [4] | Ki [4] | IC50 [5] | IC50 [6] | IC50 [7] | IC50 (Cytochrome P450 2D6) | Ki (Cytochrome P450 2D6)

C[C@H]1O[C@@H](O[C@H]2[C@@H](O)C[C@H](O[C@H]3[C@@H](O)C[C@H](O[C@H]4CC[C@@]5(C)[C@H](CC[C@@H]6[C@@H]5CC[C@]5(C)[C@@H](C7=CC(=O)OC7)CC[C@]65O)C4)O[C@@H]3C)O[C@@H]2C)C[C@H](O)[C@@H]1O [DIGITOXIN]
Not Active: IC50 [1] | Ki [1] | IC50 [2] | Ki [2] | IC50 [3] | Ki [3] | IC50 [4] | Ki [4] | IC50 [5] | IC50 [6] | IC50 [7] | IC50 (Cytochrome P450 2D6) | Ki (Cytochrome P450 2D6)

Cn1c(=O)c2c(ncn2CC2OCCO2)n(C)c1=O [DOXOFYLLINE]
Not Active: IC50 [1] | Ki [1] | IC50 [2] | Ki [2] | IC50 [3] | Ki [3] | IC50 [4] | Ki [4] | IC50 [5] | IC50 [6] | IC50 [7] | IC50 (Cytochrome P450 2D6) | Ki (Cytochrome P450 2D6)

COc1cccc2c1C(=O)c1c(O)c3c(c(O)c1C2=O)C[C@@](O)(C(=O)CO)C[C@@H]3O[C@H]1C[C@H](N)[C@H](O)[C@H](C)O1 [DOXORUBICIN]
Not Active: IC50 [1] | Ki [1] | IC50 [2] | Ki [2] | IC50 [3] | Ki [3] | IC50 [4] | Ki [4] | IC50 [5] | IC50 [6] | IC50 [7] | IC50 (Cytochrome P450 2D6) | Ki (Cytochrome P450 2D6)

COc1cccc2c1C(=O)c1c(O)c3c(c(O)c1C2=O)C[C@@](O)(C(=O)CO)C[C@@H]3O[C@H]1C[C@H](N)[C@@H](O)[C@H](C)O1 [EPIRUBICIN]
Not Active: IC50 [1] | Ki [1] | IC50 [2] | Ki [2] | IC50 [3] | Ki [3] | IC50 [4] | Ki [4] | IC50 [5] | IC50 [6] | IC50 [7] | IC50 (Cytochrome P450 2D6) | Ki (Cytochrome P450 2D6)

C[C@]12CC[C@@H]3c4ccc(OC(=O)c5ccccc5)cc4CC[C@H]3[C@@H]1CC[C@@H]2O [ESTRADIOL BENZOATE]
Not Active: IC50 [1] | Ki [1] | IC50 [2] | Ki [2] | IC50 [3] | Ki [3] | IC50 [4] | Ki [4] | IC50 [5] | IC50 [6] | IC50 [7] | IC50 (Cytochrome P450 2D6) | Ki (Cytochrome P450 2D6)

C[C@]12CC[C@@H]3c4ccc(O)cc4CC[C@H]3[C@@H]1CC[C@@H]2O [ESTRADIOL]
Not Active: IC50 [1] | Ki [1] | IC50 [2] | Ki [2] | IC50 [3] | Ki [3] | IC50 [4] | Ki [4] | IC50 [5] | IC50 [6] | IC50 [7] | IC50 (Cytochrome P450 2D6) | Ki (Cytochrome P450 2D6)

CC[C@@H](CO)NCCN[C@@H](CC)CO [ETHAMBUTOL]
Not Active: IC50 [1] | Ki [1] | IC50 [2] | Ki [2] | IC50 [3] | Ki [3] | IC50 [4] | Ki [4] | IC50 [5] | IC50 [6] | IC50 [7] | IC50 (Cytochrome P450 2D6) | Ki (Cytochrome P450 2D6)

CC1(C)O[C@@H]2C[C@H]3[C@@H]4C[C@H](F)C5=CC(=O)C=C[C@]5(C)[C@H]4[C@@H](O)C[C@]3(C)[C@]2(C(=O)CO)O1 [FLUNISOLIDE]
Not Active: IC50 [1] | Ki [1] | IC50 [2] | Ki [2] | IC50 [3] | Ki [3] | IC50 [4] | Ki [4] | IC50 [5] | IC50 [6] | IC50 [7] | IC50 (Cytochrome P450 2D6) | Ki (Cytochrome P450 2D6)

CC1(C)O[C@@H]2C[C@H]3[C@@H]4C[C@H](F)C5=CC(=O)C=C[C@]5(C)[C@@]4(F)[C@@H](O)C[C@]3(C)[C@]2(C(=O)CO)O1 [FLUOCINOLONE ACETONIDE]
Not Active: IC50 [1] | Ki [1] | IC50 [2] | Ki [2] | IC50 [3] | Ki [3] | IC50 [4] | Ki [4] | IC50 [5] | IC50 [6] | IC50 [7] | IC50 (Cytochrome P450 2D6) | Ki (Cytochrome P450 2D6)

CC1(C)O[C@@H]2C[C@H]3[C@@H]4C[C@H](F)C5=CC(=O)CC[C@]5(C)[C@H]4[C@@H](O)C[C@]3(C)[C@]2(C(=O)CO)O1 [FLURANDRENOLIDE]
Not Active: IC50 [1] | Ki [1] | IC50 [2] | Ki [2] | IC50 [3] | Ki [3] | IC50 [4] | Ki [4] | IC50 [5] | IC50 [6] | IC50 [7] | IC50 (Cytochrome P450 2D6) | Ki (Cytochrome P450 2D6)

Cc1ccc(S(=O)(=O)NC(=O)NN2CC3CCCC3C2)cc1 (stereo not given) [GLICLAZIDE]
Not Active: IC50 [1] | Ki [1] | IC50 [2] | Ki [2] | IC50 [3] | Ki [3] | IC50 [4] | Ki [4] | IC50 [5] | IC50 [6] | IC50 [7] | IC50 (Cytochrome P450 2D6) | Ki (Cytochrome P450 2D6)

CC(C)Cc1ccc(C(C)C(=O)O)cc1 (stereo not given) [IBUPROFEN]
Not Active: IC50 [1] | Ki [1] | IC50 [2] | Ki [2] | IC50 [3] | Ki [3] | IC50 [4] | Ki [4] | IC50 [5] | IC50 [6] | IC50 [7] | IC50 (Cytochrome P450 2D6) | Ki (Cytochrome P450 2D6)

COc1ccc2c(c1)c(CC(=O)O)c(C)n2C(=O)c1ccc(Cl)cc1 [INDOMETHACIN]
Not Active: IC50 [1] | Ki [1] | IC50 [2] | Ki [2] | IC50 [3] | Ki [3] | IC50 [4] | Ki [4] | IC50 [5] | IC50 [6] | IC50 [7] | IC50 (Cytochrome P450 2D6) | Ki (Cytochrome P450 2D6)

CCc1c2c(nc3ccc(OC(=O)N4CCC(N5CCCCC5)CC4)cc13)-c1cc3c(c(=O)n1C2)COC(=O)[C@]3(O)CC [IRINOTECAN]
Not Active: IC50 [1] | Ki [1] | IC50 [2] | Ki [2] | IC50 [3] | Ki [3] | IC50 [4] | Ki [4] | IC50 [5] | IC50 [6] | IC50 [7] | IC50 (Cytochrome P450 2D6) | Ki (Cytochrome P450 2D6)

CC(C(=O)O)c1cccc(C(=O)c2ccccc2)c1 (stereo not given) [KETOPROFEN]
Not Active: IC50 [1] | Ki [1] | IC50 [2] | Ki [2] | IC50 [3] | Ki [3] | IC50 [4] | Ki [4] | IC50 [5] | IC50 [6] | IC50 [7] | IC50 (Cytochrome P450 2D6) | Ki (Cytochrome P450 2D6)

Nc1ccn([C@@H]2CS[C@H](CO)O2)c(=O)n1 [LAMIVUDINE]
Not Active: IC50 [1] | Ki [1] | IC50 [2] | Ki [2] | IC50 [3] | Ki [3] | IC50 [4] | Ki [4] | IC50 [5] | IC50 [6] | IC50 [7] | IC50 (Cytochrome P450 2D6) | Ki (Cytochrome P450 2D6)

O=S(=O)([O-])CCS.[Na+] [MESNA]
Not Active: IC50 [1] | Ki [1] | IC50 [2] | Ki [2] | IC50 [3] | Ki [3] | IC50 [4] | Ki [4] | IC50 [5] | IC50 [6] | IC50 [7] | IC50 (Cytochrome P450 2D6) | Ki (Cytochrome P450 2D6)

C#C[C@]1(O)CC[C@H]2[C@@H]3CCc4cc(OC)ccc4[C@H]3CC[C@@]21C [MESTRANOL]
Not Active: IC50 [1] | Ki [1] | IC50 [2] | Ki [2] | IC50 [3] | Ki [3] | IC50 [4] | Ki [4] | IC50 [5] | IC50 [6] | IC50 [7] | IC50 (Cytochrome P450 2D6) | Ki (Cytochrome P450 2D6)

CC(=O)Nc1cccc(O)c1 [METACETAMOL]
Not Active: IC50 [1] | Ki [1] | IC50 [2] | Ki [2] | IC50 [3] | Ki [3] | IC50 [4] | Ki [4] | IC50 [5] | IC50 [6] | IC50 [7] | IC50 (Cytochrome P450 2D6) | Ki (Cytochrome P450 2D6)
